Experiment: Safety: adverse events (NCI-CTCAE v4.0), DLT, MTD, RP2D
Assay type: in vivo
Protocol: AEs were assessed using the National Cancer Institute-Common Terminology Criteria for Adverse Events (NCI-CTCAE v4.0). […] The protocol-defined GDC-0810-specific AEs of special interest (AESI) which were non-serious adverse events that required expedited reporting to the sponsor, included DLTs occurring during the DLT assessment window, grade ≥ 2 vomiting/diarrhea, grade ≥ 3 nausea, grade ≥ 2 thromboembolic events, grade ≥ 2 vaginal or uterine hemorrhage, and grade ≥ 3 elevation of ALT or AST.
Analyses of safety, pharmacokinetics, anti-tumor activity, and data from the FES-PET imaging correlative studies were planned. Confirmatory inferential analyses and imputation for missing data were not planned due to the exploratory nature of this study. Descriptive statistics were used to summarize patient data. The number of patients to be enrolled was dependent upon the observed safety and pharmacokinetic profile during dose escalations. The safety- and efficacy-evaluable population included patients who received at least one dose of the study drug. Safety was assessed through summaries of DLTs, AEs, changes in select laboratory test results, vital signs, ECGs, and changes in endometrial thickness. Objective response (with confirmation) and clinical benefit rates (CBR) were derived per RECIST v1.1 and summarized by dose level and cohort. […]
polyps, endometrial cancer, endometrial hyperplasia, and other significant disorders); any […]
disease or chronic diarrhea, short bowel syndrome, or upper gastrointestinal surgery; known human immunodeficiency virus (HIV) infection; known clinically significant history of liver disease; major surgery within 4 weeks prior to enrollment; or radiation therapy within 2 weeks […]
There were phase-specific exclusion criteria as well. In phase Ib, cohort C1 excluded patients with a history of venous thromboembolic event requiring therapeutic anticoagulation or vaginal bleeding within 2 months prior to enrollment. In phase IIa, cohorts A1 and A2 excluded patients with >1 chemotherapy in the advanced/metastatic disease setting. In phase IIa, cohort B1 excluded patients with >1 prior AI in the advanced/metastatic disease setting or prior […]
In phase IIa, cohort B2 excluded patients with >1 prior AI or >1 prior chemotherapy in the advanced/metastatic disease setting.
Patients in phase Ia in dose escalation received oral doses of GDC-0810 during 28-day cycles given once daily (QD) or twice-daily (BID), with fasting and without fasting, and with a single dose given on day −7 leading into cycle 1. The starting dose in the first cohort was 100 mg per day based on preclinical studies. Dose escalation to 200 mg and by 200 mg increments in successive cohorts occurred in the absence of dose-limiting toxicities (DLTs), or conditionally in the presence of DLTs. A DLT was defined as any adverse event (AE) occurring during the DLT window deemed by the investigator or sponsor to be related to the study drug unless they were clearly related to disease progression or other cause; DLT incidences were evaluated from day […]
patients in a dose cohort experienced a DLT, 3 additional patients were assigned to that dose; dose escalation to the next level proceeded if DLTs were experienced by ≤1 patient out of 6. If ≥2 patients experienced DLTs at a given dose, a lower dose was to be declared the maximum […]
Phase Ib was a dose-escalation study of GDC-0810 starting at 400 mg QD, as […]
Phase IIa explored the recommended phase 2 dose (RP2D) from phase Ia. All patients received GDC-0810 600 mg under non-fasting conditions. Cohorts A1 and A2 enrolled patients with tumors harboring ESR1 mutations with no prior fulvestrant use in cohort A1 while prior fulvestrant use was allowed in cohort A2. Cohorts B1 and B2 enrolled patients whose disease had progressed and who may have had one or no AI therapy; there was no prior fulvestrant use in cohort B1 while prior fulvestrant use was allowed in cohort B2.
Patients in all three study phases continued treatment until unacceptable toxicity, disease

[1] = phase IIa B2, 600 mg QD, n = 19
[2] = phase Ia cohorts 1–9, 100–800-mg BID, 300–400-mg QD, n = 41
[3] = phase Ib C1, 400 mg QD + palbociclib, n = 4
[4] = phase Ib D1, ≤ 600 mg QD + LHRH agonist, n = 6
[5] = phase Ib and IIa (n=111), grade 2, cohort B1
[6] = phase Ib and IIa (n=111), grade 2, cohort D1
[7] = phase Ib and IIa (n=111), grade 3, cohort A1
[8] = phase Ib and IIa (n=111), grade 3, cohort B1
[9] = phase Ib and IIa (n=111), grade 5, cohort B1
[10] = phase Ib combination treatments

CC/C(=C(/c1ccc(/C=C/C(=O)O)cc1)c1ccc2[nH]ncc2c1)c1ccc(F)cc1Cl [GDC-0810]
Constipation, Grades 3–5 [1]: 0 n (%)
Constipation, all grades [1]: 4 (21) n (%)
Cough, Grades 3–5 [1]: 0 n (%)
Cough, all grades [1]: 4 (21) n (%)
Decreased appetite, Grades 3–5 [1]: 0 n (%)
Decreased appetite, all grades [1]: 2 (11) n (%)
Diarrhea, Grades 3–5 [1]: 0 n (%)
Diarrhea, all grades [1]: 11 (58) n (%)
Dyspepsia, Grades 3–5 [1]: 0 n (%)
Dyspepsia, all grades [1]: 2 (11) n (%)
Fatigue, Grades 3–5 [1]: 0 n (%)
Fatigue, all grades [1]: 7 (37) n (%)
Flatulence, Grades 3–5 [1]: 0 n (%)
Flatulence, all grades [1]: 0 n (%)
Nausea, Grades 3–5 [1]: 0 n (%)
Nausea, all grades [1]: 9 (47) n (%)
Vomiting, Grades 3–5 [1]: 0 n (%)
Vomiting, all grades [1]: 2 (11) n (%)
AEs leading to dose interruption (phase IIa expansion cohorts): 32 (32%) n (%)
AEs leading to dose reduction (phase IIa expansion cohorts): 4 (4%) n (%)
AEs leading to study drug withdrawal (phase IIa expansion cohorts): 3 (3%) n (%)
MTD (maximum tolerated dose) (phase Ia): not reached
time to onset for any grade diarrhea, range (phase Ia): 1 to 176 days
AST increased, Grades 3–5 [2]: 2 (5) n (%)
AST increased, all grades [2]: 17 (42) n (%)
Abdominal pain, Grades 3–5 [2]: 1 (2) n (%)
Abdominal pain, all grades [2]: 12 (29) n (%)
Anemia, Grades 3–5 [2]: 1 (2) n (%)
Anemia, all grades [2]: 18 (44) n (%)
Arthralgia, Grades 3–5 [2]: 0 n (%)
Arthralgia, all grades [2]: 12 (29) n (%)
Constipation, Grades 3–5 [2]: 0 n (%)
Constipation, all grades [2]: 17 (42) n (%)
Cough, Grades 3–5 [2]: 0 n (%)
Cough, all grades [2]: 13 (32) n (%)
Decreased appetite, Grades 3–5 [2]: 0 n (%)
Decreased appetite, all grades [2]: 13 (32) n (%)
Diarrhea, Grades 3–5 [2]: 0 n (%)
Diarrhea, all grades [2]: 32 (78) n (%)
Dyspepsia, Grades 3–5 [2]: 0 n (%)
Dyspepsia, all grades [2]: 11 (27) n (%)
Fatigue, Grades 3–5 [2]: 3 (7) n (%)
Fatigue, all grades [2]: 28 (68) n (%)
Flatulence, Grades 3–5 [2]: 0 n (%)
Flatulence, all grades [2]: 11 (27) n (%)
Nausea, Grades 3–5 [2]: 1 (2) n (%)
Nausea, all grades [2]: 28 (68) n (%)
Vomiting, Grades 3–5 [2]: 1 (2) n (%)
Vomiting, all grades [2]: 16 (39) n (%)
AEs leading to dose interruption (phase Ia dose escalation): 18 (44%) n (%)
AEs leading to dose reduction (phase Ia dose escalation): 5 (12%) n (%)
patients with ≥ 1 AE considered related to GDC-0810 (phase Ia dose escalation): 40 (98%) n (%)
mean time to onset for any grade diarrhea (phase Ia dose-escalation cohorts): 29 days
SAEs considered related to the study drug (phase Ia, grade 4 pulmonary embolism): one of the 20
patients with grade ≥3 AEs related to GDC-0810 (phase Ia, grade 4 pulmonary embolism and two grade 3 diarrhea): 3 (7%) n (%)
deaths (phase Ib): no deaths
AST increased, Grades 3–5 [3]: 0 n (%)
AST increased, all grades [3]: 1 (25) n (%)
Abdominal pain, Grades 3–5 [3]: 0 n (%)
Abdominal pain, all grades [3]: 0 n (%)
Anemia, Grades 3–5 [3]: 0 n (%)
Anemia, all grades [3]: 2 (50) n (%)
Arthralgia, Grades 3–5 [3]: 0 n (%)
Arthralgia, all grades [3]: 1 (25) n (%)
Constipation, Grades 3–5 [3]: 0 n (%)
Constipation, all grades [3]: 0 n (%)
Cough, Grades 3–5 [3]: 0 n (%)
Cough, all grades [3]: 1 (25) n (%)
Decreased appetite, Grades 3–5 [3]: 0 n (%)
Decreased appetite, all grades [3]: 1 (25) n (%)
Diarrhea, Grades 3–5 [3]: 0 n (%)
Diarrhea, all grades [3]: 2 (50) n (%)
Dyspepsia, Grades 3–5 [3]: 0 n (%)
Dyspepsia, all grades [3]: 0 n (%)
Fatigue, Grades 3–5 [3]: 1 (25) n (%)
Fatigue, all grades [3]: 2 (50) n (%)
Flatulence, Grades 3–5 [3]: 0 n (%)
Flatulence, all grades [3]: 0 n (%)
Nausea, Grades 3–5 [3]: 0 n (%)
Nausea, all grades [3]: 3 (75) n (%)
Vomiting, Grades 3–5 [3]: 0 n (%)
Vomiting, all grades [3]: 0 n (%)
AST increased, Grades 3–5 [4]: 0 n (%)
AST increased, all grades [4]: 0 n (%)
Abdominal pain, Grades 3–5 [4]: 0 n (%)
Abdominal pain, all grades [4]: 2 (33) n (%)
Anemia, Grades 3–5 [4]: 0 n (%)
Anemia, all grades [4]: 0 n (%)
Arthralgia, Grades 3–5 [4]: 0 n (%)
Arthralgia, all grades [4]: 1 (17) n (%)
Constipation, Grades 3–5 [4]: 0 n (%)
Constipation, all grades [4]: 3 (50) n (%)
Cough, Grades 3–5 [4]: 0 n (%)
Cough, all grades [4]: 1 (17) n (%)
Decreased appetite, Grades 3–5 [4]: 0 n (%)
Decreased appetite, all grades [4]: 4 (67) n (%)
Diarrhea, Grades 3–5 [4]: 1 (17) n (%)
Diarrhea, all grades [4]: 6 (100) n (%)
Dyspepsia, Grades 3–5 [4]: 0 n (%)
Dyspepsia, all grades [4]: 3 (50) n (%)
Fatigue, Grades 3–5 [4]: 0 n (%)
Fatigue, all grades [4]: 3 (50) n (%)
Flatulence, Grades 3–5 [4]: 0 n (%)
Flatulence, all grades [4]: 1 (17) n (%)
Nausea, Grades 3–5 [4]: 0 n (%)
Nausea, all grades [4]: 4 (67) n (%)
Vomiting, Grades 3–5 [4]: 0 n (%)
Vomiting, all grades [4]: 3 (50) n (%)
SAE Urinary tract infection (phase Ib and IIa (n=111), grade 1, cohort A1): 1 n
SAE Hepatic hemorrhage (phase Ib and IIa (n=111), grade 2, cohort A1): 1 n
SAE Deep vein thrombosis [5]: 1 n
SAE Pneumonia [5]: 1 n
SAE Pleural effusion (phase Ib and IIa (n=111), grade 2, cohort C1): 1 n
SAE Abdominal pain [6]: 1 n
SAE Appendicitis perforated [6]: 1 n
SAE Pain in extremity [6]: 1 n
SAE Ascites [7]: 1 n
SAE Hypertension [7]: 1 n
SAE Vomiting (phase Ib and IIa (n=111), grade 3, cohort A1 (both)): 2 n
SAE Cardiac failure [8]: 1 n
SAE Diarrhea [8]: 1 n
SAE Dyspnea [8]: 1 n
SAE Endometrial hyperplasia [8]: 1 n
SAE Headache [8]: 1 n
SAE Hip fracture [8]: 1 n
SAE Hydronephrosis [8]: 1 n
SAE Seizure [8]: 1 n
SAE Syncope [8]: 1 n
SAE Tumor pain [8]: 1 n
SAE Atrial fibrillation (phase Ib and IIa (n=111), grade 3, cohort C1): 1 n
SAE Pneumonia (phase Ib and IIa (n=111), grade 3, cohorts A2, B1): 2 n
SAE Pulmonary embolism (phase Ib and IIa (n=111), grade 3, cohorts B1, D1): 2 n
SAE Hyponatremia (phase Ib and IIa (n=111), grade 4, cohort B1): 1 n
SAE Sepsis (phase Ib and IIa (n=111), grade 4, cohorts B1, B2): 2 n
SAE Acute kidney injury [9]: 1 n
SAE Breast cancer [9]: 2 n
AEs leading to dose interruption [10]: 5 (50%) n (%)
AEs leading to dose reduction [10]: none
AEs leading to study drug withdrawal [10]: none
vomiting, most common AEs (phases Ib/IIa): 31,28%
RP2D (recommended phase 2 dose) (taken with food / non-fasted): 600 mg QD
